# Test results taken from patent publication US11198699B2 (ALIGOS THERAPEUTICS, INC., priority 2019, dated 2021).
# Tests used:
# [1] = test system: A549 lung carcinoma cells; experiment: Cell proliferation assay, A549 (CellTiter-Glo, 7 days); assay type: cell-based; conditions: A549, 7 days, CellTiter-Glo 2.0
# Description: (§1) HepG2 hepatoma cells (ATCC, HB-8065) were maintained in DMEM with high glucose (Lonza, 12-914F) supplemented with 10% fetal bovine serum (FBS; Biowest, S181B-500) and 2 mM L-glutamine (Biowest, X0551-100) at 37° C. and 5% CO2. A549 lung carcinoma cells (ATCC, CCL-185) were maintained in F-12K medium (ThermoFisher 21127030) supplemented with 10% FBS at 37° C. and 5% CO2. Exponentially growing HepG2 or A549 were plated in white, clear-bottom 96-well plates (Corning, 3903) at a cell density of 2000 (HepG2) or 350 (A549) cells per well in 199 μL of HepG2 medium. Next, 1 μL of a 5-fold 9-point dilution series of test compound in DMSO was added to the different wells. Cells were incubated at 37° C. 5% CO2 for 7 days. Cell viability was assessed on day 7 with the CellTiter-Glo 2.0 Cell Viability assay kit (Promega, G9243) to quantify the intracellular amounts of ATP: first, 100 μL of cell culture medium was removed from each well, next 100 μL of CellTiter-Glo® 2.0 Reagent was added and plates were shaken for 2 minutes on an orbital shaker. After 10 minutes stabilization at room temperature, read-out was performed on a ThermoFisher VarioSkan Lux plate reader. Counts were normalized to DMSO control (0% inhibition) and the cytotoxic control (100% inhibition) and EC50 values were determined in GraphPad Prism 8 using the [Agonist] vs. response—Variable slope (four parameters) function.
# (§2) As shown by the data of Table 2, compounds of Formula (I) have activity in this assay. A value of ‘A’ in the table below indicates an EC50 of <20 nM, a value of ‘B’ indicates an EC50≥20 nM to <100 nM, a value of ‘C’ indicates an EC50 value of EC50≥100 nM to <1000 nM and a value of ‘D’ indicates an EC50≥1000 nM
# [2] = test system: HepG2 hepatoma cells; experiment: Cell proliferation assay, HepG2 (CellTiter-Glo, 7 days); assay type: cell-based; conditions: HepG2, 7 days, CellTiter-Glo 2.0
# Description: as §1, §2
# [3] = target: PRMT5/MEP50 (Homo sapiens (Human), UniProt O14744); experiment: PRMT5/MEP50 enzyme inhibition assay, Assay 2 (384-well, MALDI mass spectrometry, histone H4 1-21 peptide); assay type: biochemical; conditions: 1 μM SAM, 0.1 μM histone H4 1-21 peptide, 18-hour incubation at rt
# Chain of PRMT5/MEP50 (O14744 whole entry): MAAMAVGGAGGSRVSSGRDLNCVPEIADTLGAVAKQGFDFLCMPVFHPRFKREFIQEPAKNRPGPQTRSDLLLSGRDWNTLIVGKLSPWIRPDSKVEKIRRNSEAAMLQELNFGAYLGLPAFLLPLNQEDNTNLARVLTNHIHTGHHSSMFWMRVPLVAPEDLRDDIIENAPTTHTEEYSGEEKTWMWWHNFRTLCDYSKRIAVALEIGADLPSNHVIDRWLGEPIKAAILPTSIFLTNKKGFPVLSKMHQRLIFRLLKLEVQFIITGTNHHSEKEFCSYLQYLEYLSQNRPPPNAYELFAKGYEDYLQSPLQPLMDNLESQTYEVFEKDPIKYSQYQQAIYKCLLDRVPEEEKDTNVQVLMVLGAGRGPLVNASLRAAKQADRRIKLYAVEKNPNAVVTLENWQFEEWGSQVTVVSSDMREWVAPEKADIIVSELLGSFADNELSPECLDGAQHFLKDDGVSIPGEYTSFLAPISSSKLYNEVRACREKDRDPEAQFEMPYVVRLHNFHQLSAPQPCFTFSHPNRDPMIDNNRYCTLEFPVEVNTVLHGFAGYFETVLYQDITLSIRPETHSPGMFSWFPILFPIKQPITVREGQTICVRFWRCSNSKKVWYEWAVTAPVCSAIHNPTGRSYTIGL
# Chain of PRMT5/MEP50 (Q9BQA1 whole entry partner): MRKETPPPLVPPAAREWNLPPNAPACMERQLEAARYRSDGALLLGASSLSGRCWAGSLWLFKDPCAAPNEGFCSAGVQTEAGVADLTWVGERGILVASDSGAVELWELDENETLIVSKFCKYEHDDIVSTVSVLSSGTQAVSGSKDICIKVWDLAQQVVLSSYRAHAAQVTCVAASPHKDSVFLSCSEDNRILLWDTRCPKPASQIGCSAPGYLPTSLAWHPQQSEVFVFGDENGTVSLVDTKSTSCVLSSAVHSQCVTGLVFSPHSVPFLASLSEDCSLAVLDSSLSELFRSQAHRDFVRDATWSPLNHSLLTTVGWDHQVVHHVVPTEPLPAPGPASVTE
# Description: Compounds were tested for inhibition of methyltransferase activity in 384-well plate assay format using mass spectrometry technology. In this enzyme inhibition assay, compounds were tested in a 11-dose IC50 mode with 3-serial dilution, in duplicate, starting at 1, 10, or 100 μM. Reactions were carried out at 1 μM SAM and 0.1 μM histone H4 1-21 peptide as substrates for methyl transfer. Following an 18-hour incubation at rt, the reaction was stopped with 0.5% formic acid. Products of the reaction were captured while unreacted substrates were washed away, prior to MALDI mass spectrometry detection and analysis. Percent enzyme activity was calculated based on no inhibitor DMSO control as 100% activity. EC50 values were determined in GraphPad Prism 8 using the [inhibitor] vs. response—Variable slope (four parameters) function.
# Compounds of Formula (I) show activity in this assay. A value of ‘A’ in the table below indicates an IC50 of <1 nM, a value of ‘B’ indicates an IC50≥1 nM to ≤100 nM, and a value of ‘C’ indicates an IC50 value of >100 nM.
"EC50 ([1]; Homo sapiens, A549, 168 h) [nM]","EC50 ([2]; Homo sapiens, 168 h) [nM]",IC50 [3] [nM],EC50 [1] [nM],EC50 [2] [nM],Structure (SMILES)
100 to 1000,100 to 1000,< 1,,,"Nc1ccc2ccc(CC[C@@]34CC3[C@@H](n3ccc5c(N)ncnc53)[C@H](O)[C@@H]4O)nc2n1 (stereo partly drawn) [Compound 22, (1R,2R,3S,4R)-1-[2-(7-amino-1,8-naphthyridin-2-yl)ethyl]-4-(4-aminopyrrolo[2,3-d]pyrimidin-7-yl)bicyclo[3.1.0]hexane-2,3-diol]"
,,< 1,20 to 100,20 to 100,C[C@]1(CCc2ccc3cc(C#N)c(N)nc3c2)C[C@@H](n2ccc3c(N)ncnc32)[C@H](O)[C@@H]1O [Compound 27]
20 to 100,< 20,1 to 100,,,"CCCCCOC(=O)Nc1ccc2ccc(CC[C@@]3(C)C[C@@H](n4ccc5c(N)ncnc54)[C@H](O)[C@@H]3O)cc2n1 [Compound 20, pentyl N-[7-[2-[(1S,2R,3S,4R)-4-(4-aminopyrrolo[2,3-d]pyrimidin-7-yl)-2,3-dihydroxy-1-methyl-cyclopentyl]ethyl]-2-quinolyl]carbamate]"
100 to 1000,100 to 1000,< 1,,,"C[C@]1(CCCCc2ccc(Cl)c(N)n2)C[C@@H](n2ccc3c(N)ncnc32)[C@H](O)[C@@H]1O [Compound 46, (1S,2R,3S,5R)-3-(4-(6-amino-5-chloropyridin-2-yl)butyl)-5-(4-amino-7H-pyrrolo[2,3-d]pyrimidin-7-yl)-3-methylcyclopentane-1,2-diol]"
< 20,< 20,,,,"Cc1ncnc2c1ccn2[C@@H]1C[C@](C)(CCc2cc(F)c3cc(Cl)c(N)nc3c2)[C@@H](O)[C@H]1O [Compound 32, (1S,2R,3S,5R)-3-(2-(2-amino-3-chloro-5-fluoroquinolin-7-yl)ethyl)-3-methyl-5-(4-methyl-7H-pyrrolo[2,3-d]pyrimidin-7-yl)cyclopentane-1,2-diol]"
100 to 1000,20 to 100,> 100,,,"CC(C)C(=O)O[C@H]1[C@H](n2ccc3c(N)ncnc32)C[C@](C)(CCc2ccc3ccc(N)nc3c2)[C@H]1OC(=O)C(C)C [Compound 26, (1S,2R,3S,5R)-5-(4-amino-7H-pyrrolo[2,3-d]pyrimidin-7-yl)-3-(2-(2-aminoquinolin-7-yl)ethyl)-3-methylcyclopentane-1,2-diyl bis(2-methylpropanoate)]"
20 to 100,20 to 100,< 1,,,"C[C@]1(CCc2cc(F)c3cc(Cl)c(N)nc3c2)C[C@@H](n2ccc3c(N)nccc32)[C@H](O)[C@@H]1O [Compound 39, (1S,2R,3S,5R)-5-(4-amino-1H-pyrrolo[3,2-c]pyridin-1-yl)-3-(2-(2-amino-3-chloro-5-fluoroquinolin-7-yl)ethyl)-3-methylcyclopentane-1,2-diol]"
< 20,< 20,< 1,,,"Nc1nc2cc(CC[C@@]3(CO)C[C@@H](n4ccc5c(N)ncnc54)[C@H](O)[C@@H]3O)cc(F)c2cc1Cl [Compound 40, (1S,2R,3S,5R)-3-(2-(2-amino-3-chloro-5-fluoroquinolin-7-yl)ethyl)-5-(4-amino-7H-pyrrolo[2,3-d]pyrimidin-7-yl)-3-(hydroxymethyl)cyclopentane-1,2-diol]"
< 20,< 20,,,,"C[C@]1(CCc2cc(F)c3cc(Cl)c(N)nc3c2)C[C@@H](n2ccc3c(N)ncc(F)c32)[C@H](O)[C@@H]1O [Compound 34, (1S,2R,3S,5R)-3-[2-(2-amino-3-chloro-5-fluoro-7-quinolyl)ethyl]-5-(4-amino-7-fluoro-pyrrolo[3,2-c]pyridin-1-yl)-3-methyl-cyclopentane-1,2-diol]"
< 20,< 20,< 1,,,"C[C@]1(CCc2cc(F)c3ccc(N)nc3c2)C[C@@H](n2ccc3c(N)ncc(F)c32)[C@H](O)[C@@H]1O [Compound 42, (1S,2R,3S,5R)-3-(2-(2-amino-5-fluoroquinolin-7-yl)ethyl)-5-(4-amino-7-fluoro-1H-pyrrolo[3,2-c]pyridin-1-yl)-3-methylcyclopentane-1,2-diol]"
< 20,< 20,< 1,,,C[C@]1(CCc2ccc3ccc(N)nc3c2)C[C@@H](c2ccc3c(N)ncnn23)[C@H](O)[C@@H]1O [Compound 48]
,,< 1,< 20,< 20,C[C@]1(CCc2ccc3cc(C(F)F)c(N)nc3c2)C[C@@H](n2ccc3c(N)ncnc32)[C@H](O)[C@@H]1O [Compound 23]
100 to 1000,100 to 1000,> 100,,,CCCCCOC(=O)Nc1ccc2cc(CC[C@@]3(C)C[C@@H](n4ccc5c(N)ncnc54)[C@H](O)[C@@H]3O)ccc2n1 [Compound 20-A]
< 20,< 20,,,,"Nc1ccc2ccc(CC[C@@]3(F)C[C@@H](n4ccc5c(N)ncnc54)[C@H](O)[C@@H]3O)cc2n1 [Compound 35, (1S,2S,3R,5R)-5-(4-amino-7H-pyrrolo[2,3-d]pyrimidin-7-yl)-3-(2-(2-aminoquinolin-7-yl)ethyl)-3-fluorocyclopentane-1,2-diol]"
< 20,< 20,< 1,,,C#C[C@]1(CCc2cc(F)c3cc(Cl)c(N)nc3c2)C[C@@H](n2ccc3c(N)ncnc32)[C@H](O)[C@@H]1O [Compound 52]
,,< 1,< 20,< 20,C[C@]1(CCc2ccc3cc(Cl)c(N)nc3c2)C[C@@H](n2ccc3c(N)ncnc32)[C@H](O)[C@@H]1O [Compound 18]
20 to 100,100 to 1000,< 1,,,C[C@]1(CCCCc2cccc(N)n2)C[C@@H](n2ccc3c(N)ncnc32)[C@H](O)[C@@H]1O [Compound 47]
,,< 1,20 to 100,< 20,Cn1c(N)nc2cc(CC[C@@]3(C)C[C@@H](n4ccc5c(N)ncnc54)[C@H](O)[C@@H]3O)ccc2c1=O [Compound 29]
< 20,< 20,,,,"CCCCCOC(=O)Nc1nc2cc(CC[C@@]3(C)C[C@@H](n4ccc5c(N)ncnc54)[C@H](O)[C@@H]3O)ccc2cc1Cl [Compound 33, pentyl (7-(2-((1S,2R,3S,4R)-4-(4-amino-7H-pyrrolo[2,3-d]pyrimidin-7-yl)-2,3-dihydroxy-1-methylcyclopentyl)ethyl)-3-chloroquinolin-2-yl)carbamate]"
< 20,20 to 100,< 1,,,"C[C@]1(CCc2cc(F)c3cc(Cl)c(N)nc3c2)C[C@@H](n2cc(F)c3c(N)nccc32)[C@H](O)[C@@H]1O [Compound 43, (1S,2R,3S,5R)-3-(2-(2-amino-3-chloro-5-fluoroquinolin-7-yl)ethyl)-5-(4-amino-3-fluoro-1H-pyrrolo[3,2-c]pyridin-1-yl)-3-methylcyclopentane-1,2-diol]"
,,< 1,,,COC[C@]1(CCc2ccc3cc(Br)c(N)nc3c2)C[C@@H](n2ccc3c(N)ncnc32)[C@H](O)[C@@H]1O [Compound 58]
< 20,< 20,,,,C[C@]1(CCc2ccc3cc(Br)c(N)nc3c2)C[C@@H](n2ccc3c(N)ncnc32)[C@H](O)[C@@H]1O [Compound 1]
,,< 1,,,C[C@]1(CCc2cc(F)c3cc(Cl)c(N)nc3c2)C[C@@H](c2ccc3c(N)ncnn23)[C@H](O)[C@@H]1O [Compound 57]

Structure (SMILES),"EC50 ([1]; Homo sapiens, A549, 168 h) [nM]","EC50 ([2]; Homo sapiens, 168 h) [nM]",IC50 [3] [nM],EC50 [1] [nM],EC50 [2] [nM]
C[C@]1(CCc2ccc3ccc(N)nc3n2)C[C@@H](n2ccc3c(N)ncnc32)[C@H](O)[C@@H]1O [Compound 24],,,< 1,20 to 100,20 to 100
